Holding throughout (assay type): functional, cell-based
One assay relates to MCF7. Kind of assay: Antiproliferative activity against human MCF7 cells assessed as inhibition of cell proliferation incubated for 48 hrs by MTT assay. Conditions: MCF7, 48 h. On the technique in general: Formazan colour is commonly taken as a measure of viable cells.
A further assay deals with HeLa. Kind of assay: Antiproliferative activity against human HeLa cells assessed as inhibition of cell proliferation incubated for 48 hrs by MTT assay.
Another assay relates to MDA-MB-231. Put plainly: Antiproliferative activity against human MDA-MB-231 cells assessed as inhibition of cell proliferation incubated for 48 hrs by MTT assay. The note with it: MDA-MB-231, 48 h.

In general, IC50 refers to the concentration that gives 50% inhibition. Turning to `C=C(C)[C@@H]1CC[C@]2(C(=O)OCc3ccccc3)CC[C@]3(C)[C@H](CC[C@@H]4[C@@]5(C)CC[C@@H](OC(=O)CCl)C(C)(C)[C@@H]5CC[C@]43C)[C@@H]12`, the IC50 in the assay on MCF7 and in the assay on HeLa was over 75 µM in each case.

Consider `C=C(C)[C@@H]1CC[C@]2(C(=O)N3CCN(C(=O)CCl)CC3)CC[C@]3(C)[C@H](CC[C@@H]4[C@@]5(C)CCC(=O)C(C)(C)[C@@H]5CC[C@]43C)[C@@H]12`, for which the IC50 was 2.52 µM with MCF7 and 2.01 µM with HeLa.

Consider `C=C(C)[C@@H]1CC[C@]2(C(=O)O)CC[C@]3(C)[C@H](CC[C@@H]4[C@@]5(C)CC[C@H](OC(=O)N6CCN(C(=O)C(F)(F)Cl)CC6)C(C)(C)[C@@H]5CC[C@]43C)[C@@H]12`, for which the 50% inhibitory concentration (IC50) in the assay with MCF7 came out at 30.7 µM; with HeLa, 31.3 µM; with MDA-MB-231, 26.3 µM.

In the case of `C=C(C)[C@@H]1CC[C@]2(C(=O)N3CCNCC3)CC[C@]3(C)[C@H](CC[C@@H]4[C@@]5(C)CCC(=O)C(C)(C)[C@@H]5CC[C@]43C)[C@@H]12`, the IC50 with MCF7 stood at 3.94 µM; in the assay with HeLa, 3.04 µM; with MDA-MB-231, 3 µM.

Turning to `C=C(C)[C@@H]1CC[C@]2(C(=O)OC)CC[C@]3(C)[C@H](CC[C@@H]4[C@@]5(C)CC[C@H](OC(=O)CCl)C(C)(C)[C@@H]5CC[C@]43C)[C@@H]12`, the IC50 with MCF7, in the assay on HeLa and in the assay with MDA-MB-231 was over 75 µM each time.

With `C=C(C)[C@@H]1CC[C@]2(C(=O)OCc3ccccc3)CC[C@]3(C)[C@H](CC[C@@H]4[C@@]5(C)CC[C@H](OC(=O)N6CCN(C(=O)CCl)CC6)C(C)(C)[C@@H]5CC[C@]43C)[C@@H]12`, the IC50 with MCF7, in the assay on HeLa and in the assay on MDA-MB-231 was over 100 µM each time.

Regarding `C=C(C)[C@@H]1CC[C@]2(C(=O)O)CC[C@]3(C)[C@H](CC[C@@H]4[C@@]5(C)CC[C@H](OC(C)=O)C(C)(C)[C@@H]5CC[C@]43C)[C@@H]12`, the figures for the concentration for half-maximal inhibition (IC50) with MCF7, in the assay on HeLa and in the assay on MDA-MB-231 were 43.6 µM, 32.1 µM and 35 µM, respectively.

For `C=CC(=O)O[C@H]1CC[C@]2(C)[C@H]3CC[C@@H]4[C@H]5[C@H](C(=C)C)CC[C@]5(C(=O)O)CC[C@@]4(C)[C@]3(C)CC[C@H]2C1(C)C`, the IC50 in the assay on MCF7 stood at 35.3 µM; with HeLa, 33.5 µM; with MDA-MB-231 it was 30.9 µM.

For the molecule `C=C(C)[C@@H]1CC[C@]2(C(=O)O)CC[C@]3(C)[C@H](CC[C@@H]4[C@@]5(C)CC[C@H](OC(=O)CC)C(C)(C)[C@@H]5CC[C@]43C)[C@@H]12`, the IC50 with MCF7 is 45.1 µM; in the assay with HeLa, 39.4 µM; in the assay with MDA-MB-231, 30.9 µM.

In the case of `C=C(C)[C@@H]1CC[C@]2(C(=O)O)CC[C@]3(C)[C@H](CC[C@@H]4[C@@]5(C)CC[C@H](O)C(C)(C)[C@@H]5CC[C@]43C)[C@@H]12` [BETULINIC ACID], the half-inhibitory concentration (IC50) in the assay with MCF7 was found to be 40.8 µM; in the assay with HeLa, 51.3 µM; in the assay on MDA-MB-231, 66 µM.

For the molecule `C=C(C)[C@@H]1CC[C@]2(C(=O)O)CC[C@]3(C)[C@H](CC[C@@H]4[C@@]5(C)CC[C@H](OC(=O)C(Cl)Cl)C(C)(C)[C@@H]5CC[C@]43C)[C@@H]12`, the figures for the IC50 in the assay on MCF7, in the assay with HeLa and in the assay on MDA-MB-231 were 51.5 µM, 66.2 µM and 35.7 µM, respectively.

In the case of `C=C(C)[C@@H]1CC[C@]2(C(=O)OCc3ccccc3)CC[C@]3(C)[C@H](CC[C@@H]4[C@@]5(C)CC[C@H](OC(=O)NC(=O)CCl)C(C)(C)[C@@H]5CC[C@]43C)[C@@H]12`, the IC50 with MCF7, with HeLa and in the assay with MDA-MB-231 was over 150 µM each time.

As for `C=C(C)[C@@H]1CC[C@]2(C(=O)N3CCN(C(C)=O)CC3)CC[C@]3(C)[C@H](CC[C@@H]4[C@@]5(C)CCC(=O)C(C)(C)[C@@H]5CC[C@]43C)[C@@H]12`, the IC50 is 29.9 µM in the assay on MCF7, 30 µM in the assay on HeLa and 36.3 µM in the assay with MDA-MB-231.

Regarding `C=C(C)[C@@H]1CC[C@]2(C(=O)N3CCN(C(=O)CCl)CC3)CC[C@]3(C)[C@H](CC[C@@H]4[C@@]5(C)CC[C@H](OC(=O)Nc6ccccc6)C(C)(C)[C@@H]5CC[C@]43C)[C@@H]12`, the IC50 with MCF7, in the assay on HeLa and in the assay with MDA-MB-231 was over 100 µM throughout.

As to `C=C(C)[C@@H]1CC[C@]2(C(=O)O)CC[C@]3(C)[C@H](CC[C@@H]4[C@@]5(C)CC[C@H](OC(=O)CBr)C(C)(C)[C@@H]5CC[C@]43C)[C@@H]12`, the IC50 with MCF7 was determined as 17.5 µM; in the assay with HeLa, 18.7 µM; with MDA-MB-231, 18.6 µM.

For the molecule `C=C(C)[C@@H]1CC[C@]2(C(=O)O)CC[C@]3(C)[C@H](CC[C@@H]4[C@@]5(C)CC[C@H](OC(=O)CCl)C(C)(C)[C@@H]5CC[C@]43C)[C@@H]12`, the IC50 with MCF7 is 16.2 µM; with HeLa it was 15.3 µM; in the assay on MDA-MB-231, 17.6 µM.

Consider `C=CCNC(=O)[C@]12CC[C@@H](C(=C)C)[C@@H]1[C@H]1CC[C@@H]3[C@@]4(C)CC[C@H](OC(=O)N5CCN(C(=O)CCl)CC5)C(C)(C)[C@@H]4CC[C@@]3(C)[C@]1(C)CC2`, for which the concentration for half-maximal inhibition (IC50) is 16.7 µM with MCF7, 17.2 µM in the assay with HeLa and 18 µM in the assay with MDA-MB-231.

For `C=C(C)[C@@H]1CC[C@]2(C(=O)N3CCN(C)CC3)CC[C@]3(C)[C@H](CC[C@@H]4[C@@]5(C)CC[C@H](OC(=O)N6CCN(C(=O)CCl)CC6)C(C)(C)[C@@H]5CC[C@]43C)[C@@H]12`, the half-maximal inhibitory concentration (IC50) in the assay on MCF7 stood at 20.7 µM; in the assay with HeLa it was 21.4 µM; with MDA-MB-231 it was 25.6 µM.

For `C=C(C)[C@@H]1CC[C@]2(C(=O)O)CC[C@]3(C)[C@H](CC[C@@H]4[C@@]5(C)CC[C@H](OC(=O)NCCCCNC(=O)CCl)C(C)(C)[C@@H]5CC[C@]43C)[C@@H]12`, the IC50 worked out at 7.24 µM in the assay on MCF7, 8.69 µM with HeLa and 8.94 µM in the assay with MDA-MB-231.

Consider `C=C(C)[C@@H]1CC[C@]2(C(=O)O)CC[C@]3(C)[C@H](CC[C@@H]4[C@@]5(C)CC[C@H](OC(=O)NCCCNC(=O)CCl)C(C)(C)[C@@H]5CC[C@]43C)[C@@H]12`, for which the values for the half-inhibitory concentration (IC50) in the assay with MCF7, in the assay with HeLa and in the assay with MDA-MB-231 were 7.25 µM, 7.34 µM and 8.48 µM, respectively.

In the case of `C=C(C)[C@@H]1CC[C@]2(C(=O)OCc3ccccc3)CC[C@]3(C)[C@H](CC[C@@H]4[C@@]5(C)CC[C@H](OC(=O)CCl)C(C)(C)[C@@H]5CC[C@]43C)[C@@H]12`, the concentration for half-maximal inhibition (IC50) with MCF7, with HeLa and in the assay on MDA-MB-231 was over 75 µM in each case.

On to `C=C(C)[C@@H]1CC[C@]2(C(=O)O)CC[C@]3(C)[C@H](CC[C@@H]4[C@@]5(C)CC[C@H](OC(=O)NCCNC(=O)CCl)C(C)(C)[C@@H]5CC[C@]43C)[C@@H]12`, for which the values for the IC50 in the assay on MCF7, with HeLa and with MDA-MB-231 were 6.81 µM, 8.73 µM and 9.64 µM, respectively.

In the case of `C=C(C)[C@@H]1CC[C@]2(C(=O)O)CC[C@]3(C)[C@H](CC[C@@H]4[C@@]5(C)CC[C@@H](OC(=O)CCl)C(C)(C)[C@@H]5CC[C@]43C)[C@@H]12`, the IC50 in the assay on MCF7 was determined as 17.1 µM; with HeLa, 16.9 µM.
